Measurements from US11498899B2, “Nitrone herbicides” (FMC Corporation, priority 2016, dated 2022).

Tests used:
[1] = system: foxtail, giant (giant foxtail, Setaria faberii); assay: Test A postemergence, visual injury rating 0-100; assay type: in vivo; conditions: 0 to 100 scale
[2] = system: kochia (Kochia scoparia); assay: Test A postemergence, visual injury rating 0-100; assay type: in vivo; conditions: 0 to 100 scale
[3] = system: pigweed (Amaranthus retroflexus); assay: Test A postemergence, visual injury rating 0-100; assay type: in vivo; conditions: 0 to 100 scale
[4] = system: ryegrass, Italian (Italian ryegrass, Lolium multiflorum); assay: Test A postemergence, visual injury rating 0-100; assay type: in vivo; conditions: 0 to 100 scale
[5] = system: barnyardgrass (Echinochloa crus-galli); assay: Test A postemergence, visual injury rating 0-100; assay type: in vivo; conditions: 0 to 100 scale
[6] = system: ragweed (common ragweed, Ambrosia elatior); assay: Test A postemergence, visual injury rating 0-100; assay type: in vivo; conditions: 0 to 100 scale
[7] = system: blackgrass (Alopecurus myosuroides); assay: Test A postemergence, visual injury rating 0-100; assay type: in vivo; conditions: 0 to 100 scale
[8] = system: wheat (Triticum aestivum); assay: Test A postemergence, visual injury rating 0-100; assay type: in vivo; conditions: 0 to 100 scale
[9] = system: corn (Zea mays); assay: Test A postemergence, visual injury rating 0-100; assay type: in vivo; conditions: 0 to 100 scale
[10] = system: galium (catchweed bedstraw, Galium aparine); assay: Test A postemergence, visual injury rating 0-100; assay type: in vivo; conditions: 0 to 100 scale
[11] = system: barnyardgrass (Echinochloa crus-galli); assay: Test A preemergence, visual injury rating 0-100 (0 no effect, 100 complete control); assay type: in vivo
[12] = system: rice (Oryza sativa); assay: Test B flooded paddy test, visual rating 0-100 (0 no effect, 100 complete control); conditions: Flood, 250 g ai/ha, applied to paddy water, rated after 13 to 15 days
[13] = system: barnyardgrass (Echinochloa crus-galli); assay: Test B flooded paddy test, visual rating 0-100; conditions: Flood, 250 g ai/ha, applied to paddy water, rated after 13 to 15 days
[14] = system: ducksalad (Heteranthera limosa); assay: Test B flooded paddy test, visual rating 0-100; conditions: Flood, 250 g ai/ha, applied to paddy water, rated after 13 to 15 days
[15] = system: foxtail, giant (giant foxtail, Setaria faberii); assay: Test A preemergence, visual injury rating 0-100; assay type: in vivo
[16] = system: kochia (Kochia scoparia); assay: Test A preemergence, visual injury rating 0-100; assay type: in vivo
[17] = system: pigweed (Amaranthus retroflexus); assay: Test A preemergence, visual injury rating 0-100; assay type: in vivo
[18] = system: ryegrass, Italian (Italian ryegrass, Lolium multiflorum); assay: Test A preemergence, visual injury rating 0-100; assay type: in vivo; conditions: 500 g ai/ha
[19] = system: ragweed (common ragweed, Ambrosia elatior); assay: Test A preemergence, visual injury rating 0-100; assay type: in vivo

CC1=[N+]([O-])C(C(=O)Nc2cccc(F)c2F)C(c2ccc(OC(F)(F)F)c(F)c2)C1 (racemic) [Compound 113]
40: Kochia plant response rating ([2]; 500 g ai/ha) | Blackgrass plant response rating ([7]; 125 g ai/ha)
30: Barnyardgrass plant response rating ([5]; 125 g ai/ha) | Pigweed plant response rating (0 to 100 scale) ([17]; 125 g ai/ha)
0: Kochia plant response rating ([2]; 125 g ai/ha) | Pigweed plant response rating ([3]; 125 g ai/ha) | Ryegrass, Italian plant response rating ([4]; 125 g ai/ha) | Wheat plant response rating ([8]; 125 g ai/ha) | Rice plant response rating (0 to 100 scale) [12] | Barnyardgrass plant response rating (0 to 100 scale) [13] | Ducksalad plant response rating (0 to 100 scale) [14] | Ragweed plant response rating (0 to 100 scale) ([19]; 125 g ai/ha)
50: Ryegrass, Italian plant response rating ([4]; 500 g ai/ha) | Ragweed plant response rating ([6]; 125 g ai/ha) | Ragweed plant response rating ([6]; 500 g ai/ha) | Wheat plant response rating ([8]; 500 g ai/ha) | Galium plant response rating ([10]; 125 g ai/ha)
10: Kochia plant response rating (0 to 100 scale) ([16]; 125 g ai/ha)
80: Foxtail, Giant plant response rating ([1]; 125 g ai/ha) | Barnyardgrass plant response rating ([5]; 500 g ai/ha) | Blackgrass plant response rating ([7]; 500 g ai/ha) | Corn plant response rating ([9]; 500 g ai/ha) | Ryegrass, Italian plant response rating (0 to 100 scale) [18]
60: Pigweed plant response rating (0 to 100 scale) ([17]; 500 g ai/ha)
70: Galium plant response rating ([10]; 500 g ai/ha) | Ragweed plant response rating (0 to 100 scale) ([19]; 500 g ai/ha)
20: Pigweed plant response rating ([3]; 500 g ai/ha) | Corn plant response rating ([9]; 125 g ai/ha)
90: Foxtail, Giant plant response rating ([1]; 500 g ai/ha) | Barnyardgrass plant response rating (0 to 100 scale) ([11]; 125 g ai/ha) | Barnyardgrass plant response rating (0 to 100 scale) ([11]; 500 g ai/ha) | Foxtail, Giant plant response rating (0 to 100 scale) ([15]; 125 g ai/ha) | Foxtail, Giant plant response rating (0 to 100 scale) ([15]; 500 g ai/ha) | Kochia plant response rating (0 to 100 scale) ([16]; 500 g ai/ha)

CC1=[N+]([O-])C(C(=O)Nc2cccc(F)c2F)C(c2cc(F)c(C(F)(F)F)c(F)c2)C1 (racemic) [Compound 114]
40: Wheat plant response rating ([8]; 125 g ai/ha) | Corn plant response rating ([9]; 125 g ai/ha) | Barnyardgrass plant response rating (0 to 100 scale) [13]
50: Pigweed plant response rating (0 to 100 scale) ([17]; 125 g ai/ha)
90: Foxtail, Giant plant response rating ([1]; 500 g ai/ha) | Barnyardgrass plant response rating ([5]; 500 g ai/ha) | Barnyardgrass plant response rating (0 to 100 scale) ([11]; 125 g ai/ha) | Barnyardgrass plant response rating (0 to 100 scale) ([11]; 500 g ai/ha) | Foxtail, Giant plant response rating (0 to 100 scale) ([15]; 125 g ai/ha) | Foxtail, Giant plant response rating (0 to 100 scale) ([15]; 500 g ai/ha) | Ryegrass, Italian plant response rating (0 to 100 scale) [18] | Ragweed plant response rating (0 to 100 scale) ([19]; 500 g ai/ha)
80: Foxtail, Giant plant response rating ([1]; 125 g ai/ha) | Blackgrass plant response rating ([7]; 125 g ai/ha) | Blackgrass plant response rating ([7]; 500 g ai/ha) | Corn plant response rating ([9]; 500 g ai/ha) | Kochia plant response rating (0 to 100 scale) ([16]; 500 g ai/ha) | Pigweed plant response rating (0 to 100 scale) ([17]; 500 g ai/ha) | Ragweed plant response rating (0 to 100 scale) ([19]; 125 g ai/ha)
60: Ryegrass, Italian plant response rating ([4]; 125 g ai/ha) | Wheat plant response rating ([8]; 500 g ai/ha) | Ducksalad plant response rating (0 to 100 scale) [14]
0: Pigweed plant response rating ([3]; 125 g ai/ha)
30: Ragweed plant response rating ([6]; 125 g ai/ha) | Rice plant response rating (0 to 100 scale) [12]
70: Kochia plant response rating ([2]; 500 g ai/ha) | Pigweed plant response rating ([3]; 500 g ai/ha) | Ryegrass, Italian plant response rating ([4]; 500 g ai/ha) | Barnyardgrass plant response rating ([5]; 125 g ai/ha) | Ragweed plant response rating ([6]; 500 g ai/ha) | Galium plant response rating ([10]; 125 g ai/ha) | Galium plant response rating ([10]; 500 g ai/ha)
20: Kochia plant response rating ([2]; 125 g ai/ha) | Kochia plant response rating (0 to 100 scale) ([16]; 125 g ai/ha)

CC1=[N+]([O-])C(C(=O)Nc2cccc(F)c2F)C(c2cccc(Oc3ncc(Cl)cn3)c2)C1 (racemic) [Compound 115]
0: Foxtail, Giant plant response rating ([1]; 125 g ai/ha) | Kochia plant response rating ([2]; 125 g ai/ha) | Pigweed plant response rating ([3]; 125 g ai/ha) | Ryegrass, Italian plant response rating ([4]; 125 g ai/ha) | Barnyardgrass plant response rating ([5]; 125 g ai/ha) | Ragweed plant response rating ([6]; 125 g ai/ha) | Corn plant response rating ([9]; 125 g ai/ha) | Rice plant response rating (0 to 100 scale) [12] | Barnyardgrass plant response rating (0 to 100 scale) [13] | Ducksalad plant response rating (0 to 100 scale) [14] | Kochia plant response rating (0 to 100 scale) ([16]; 125 g ai/ha) | Pigweed plant response rating (0 to 100 scale) ([17]; 125 g ai/ha) | Pigweed plant response rating (0 to 100 scale) ([17]; 500 g ai/ha) | Ragweed plant response rating (0 to 100 scale) ([19]; 125 g ai/ha)
90: Barnyardgrass plant response rating (0 to 100 scale) ([11]; 125 g ai/ha) | Barnyardgrass plant response rating (0 to 100 scale) ([11]; 500 g ai/ha) | Foxtail, Giant plant response rating (0 to 100 scale) ([15]; 500 g ai/ha)
60: Ryegrass, Italian plant response rating ([4]; 500 g ai/ha) | Barnyardgrass plant response rating ([5]; 500 g ai/ha) | Corn plant response rating ([9]; 500 g ai/ha)
30: Kochia plant response rating (0 to 100 scale) ([16]; 500 g ai/ha)
70: Foxtail, Giant plant response rating ([1]; 500 g ai/ha) | Galium plant response rating ([10]; 500 g ai/ha)
80: Blackgrass plant response rating ([7]; 500 g ai/ha) | Ryegrass, Italian plant response rating (0 to 100 scale) [18]
10: Wheat plant response rating ([8]; 125 g ai/ha)
50: Wheat plant response rating ([8]; 500 g ai/ha)
40: Blackgrass plant response rating ([7]; 125 g ai/ha) | Galium plant response rating ([10]; 125 g ai/ha)
20: Kochia plant response rating ([2]; 500 g ai/ha) | Pigweed plant response rating ([3]; 500 g ai/ha) | Ragweed plant response rating ([6]; 500 g ai/ha) | Foxtail, Giant plant response rating (0 to 100 scale) ([15]; 125 g ai/ha) | Ragweed plant response rating (0 to 100 scale) ([19]; 500 g ai/ha)

CCOc1cc(OC)cc(C2CC(C)=[N+]([O-])C2C(=O)Nc2cccc(F)c2F)c1 (racemic) [Compound 116]
60: Foxtail, Giant plant response rating ([1]; 125 g ai/ha) | Corn plant response rating ([9]; 500 g ai/ha)
50: Barnyardgrass plant response rating ([5]; 125 g ai/ha)
90: Foxtail, Giant plant response rating ([1]; 500 g ai/ha) | Barnyardgrass plant response rating (0 to 100 scale) ([11]; 500 g ai/ha) | Foxtail, Giant plant response rating (0 to 100 scale) ([15]; 125 g ai/ha) | Foxtail, Giant plant response rating (0 to 100 scale) ([15]; 500 g ai/ha)
30: Corn plant response rating ([9]; 125 g ai/ha)
70: Wheat plant response rating ([8]; 500 g ai/ha)
20: Kochia plant response rating ([2]; 500 g ai/ha) | Wheat plant response rating ([8]; 125 g ai/ha) | Galium plant response rating ([10]; 500 g ai/ha)
0: Kochia plant response rating ([2]; 125 g ai/ha) | Pigweed plant response rating ([3]; 125 g ai/ha) | Pigweed plant response rating ([3]; 500 g ai/ha) | Ryegrass, Italian plant response rating ([4]; 125 g ai/ha) | Ragweed plant response rating ([6]; 125 g ai/ha) | Ragweed plant response rating ([6]; 500 g ai/ha) | Galium plant response rating ([10]; 125 g ai/ha) | Rice plant response rating (0 to 100 scale) [12] | Barnyardgrass plant response rating (0 to 100 scale) [13] | Ducksalad plant response rating (0 to 100 scale) [14] | Kochia plant response rating (0 to 100 scale) ([16]; 125 g ai/ha) | Kochia plant response rating (0 to 100 scale) ([16]; 500 g ai/ha) | Pigweed plant response rating (0 to 100 scale) ([17]; 125 g ai/ha) | Pigweed plant response rating (0 to 100 scale) ([17]; 500 g ai/ha) | Ragweed plant response rating (0 to 100 scale) ([19]; 125 g ai/ha) | Ragweed plant response rating (0 to 100 scale) ([19]; 500 g ai/ha)
80: Ryegrass, Italian plant response rating ([4]; 500 g ai/ha) | Barnyardgrass plant response rating ([5]; 500 g ai/ha) | Blackgrass plant response rating ([7]; 125 g ai/ha) | Blackgrass plant response rating ([7]; 500 g ai/ha) | Barnyardgrass plant response rating (0 to 100 scale) ([11]; 125 g ai/ha) | Ryegrass, Italian plant response rating (0 to 100 scale) [18]
